In patent US10118943B2, “Compounds and methods for inhibiting cell death” (Ramot at Tel-Aviv University Ltd., priority 2012, dated 2018):
Entries after “also recorded” stand apart in the source; their conditions may differ. Read-outs that look alike come from different tables or passages of the source. Ends that are not written are not given here.

Experiments:
PC12 cells = details: ZnCl2 400 μM, 4 h
Description: FIG. 15: Rat pheochromocytoma cells (PC12) were seeded on Poly-D-Lysine coated 96-well tissue culture dishes in high concentration (30,000 cells/well). On the day of the experiment the cells were treated with ZnCl2 (400 μM) either alone or in combination with different concentration of SKIP for 4 h. After 4 h the cell viability was analyzed by MTS assay. […] All values are from one experiment performed in hexplicate.
Rat pheochromocytoma cell (PC12, ATCC, Bethesda, Md., USA) were grown in 10-cm tissue culture dishes (Corning). The base medium for this cell line was RPMI-1640 Medium (Invitrogen) supplemented with 10% heat-inactivated horse serum, 5% fetal bovine serum and solution containing 100 U/ml penicillin together with […] streptomycin (Biological Industries, Beit Haemek, Israel). The cells were incubated in 95% air; 5% CO2 in a humidified incubator at 37° C. The medium was changed every 2 to 3 days. The cells were subcultured when cell density reached 4×10^6 cells/ml. The cells were split in a ratio of 1:4.
On the day before the experiment cells were to be harvested, re-suspended and seeded on tissue culture dishes. For cell viability measurements, cells were seeded on Poly-D-Lysine coated 96-well tissue culture dishes (Sigma-Aldrich) at a concentration of 3×10^4 cells/well.
The cell viability is measured by colorimetric method that determines the number of viable cells in culture. This method is based on the bio-reduction of the tetrazolium compound [3-(4,5-dimethylthiazol-2-yl)-5-(3-carboxymethoxyphenyl)-2-(4-sulfophenyl)-2H-tetrazolium; MTS] by living cells into a colored formazan product. This reaction is occurring in the presence of an electron coupling reagent (phenazine ethosulfate; PES). The amount of formazan product is measured by ELISA plate reader at 490 nm and is directly proportional to the number of living cells in culture (CellTiter 96® AQueous One Solution Cell Proliferation Assay; Promega, Madison, Wis., USA).

ADNP+/− mice [1] = assay: Object recognition test in ADNP-deficient mice; assay type: in vivo, mouse; details: intranasal, twice a day, 1 month, ADNP+/− male mice
Text: (§1) All procedures involving animals were approved by the Animal Care and Use Committee of Tel Aviv University and the National Institutes of Health (Bethesda, Md.). ADNP heterozygous mice, a model for cognitive impairments (Vulih-Shultzman et al., 2007, J. Pharmacol. Exp. Ther. 323:438-449), were housed in a 12-h light/12-h dark cycle facility, and free access to rodent chow and water was available.
(§2) SKIP (SEQ ID NO:6) treatment included daily intranasal administrations over a 1 month period to 5-month-old male mice (2 μg/5 μl/mouse/day). For intranasal administration, the peptide was dissolved in a vehicle solution, in which each milliliter included 7.5 mg of NaCl, 1.7 mg of citric acid monohydrate, 3 mg of disodium phosphate dihydrate, and 0.2 mg of benzalkonium chloride solution (50%). SKIP (SEQ ID NO:6) or vehicle solution (DD) was administered to mice hand-held in a semisupine position with nostrils facing the investigator. A pipette tip was used to administer 5 μl/each nostril. The mouse was handheld until the solution was totally absorbed (˜10 s). Nasal SKIP (SEQ ID NO:6) application was performed daily, twice a day, for 1 month (5 days a week). After 1 month, SKIP (SEQ ID NO:6) was applied 2 h before the behavioral tests (described below).
The test includes 2 consecutive days of habituation (five minutes per day) and the experimental day which consists of the three phases. The test was conducted two hours after the daily intranasal SKIP (SEQ ID NO:6). During the first phase (Phase 1, habituation phase), the open field apparatus (arena of 50×50 cm) contained two identical objects (samples) and a mouse was placed in the apparatus facing the wall and allowed to freely explore the objects. At the end of the 5-min session of Phase 1, the mouse was put back into its home cage for 3 hours. […] The time spent sniffing/touching each object was measured. The data was analyzed using the following formula: D1=b−a, when ‘a’ designated the time of exploration of the familiar object and ‘b’ designated the time of exploration of the novel object. […]

ADNP+/− mice [2] = assay: Morris water maze in ADNP-deficient mice; assay type: in vivo, mouse; details: intranasal, twice a day, 1 month, ADNP+/− male mice
Text: as §1
SKIP (SEQ ID NO:6) treatment included daily intranasal administrations over a 1 month period to 5-month-old male mice (2 μg/5 μl/mouse/day). […]
The apparatus was a pool with a diameter of 140 cm, filled with opaque water (23-24° C.). […] The time taken for an animal to reach the platform (latency) was recorded. The daily improvement (in seconds to reach the hidden platform) for each animal (in comparison to the starting day) was calculated. […] The platform was removed from the maze and the distance traveled and the time spent by the mice in the pool's quarter where the platform used to be, were recorded (for a maximal period of 90 s). Mouse behavior in the quarter that is most distant from the target quarter was also measured. All measurements were recorded as the percentage of the total time spent or total path traveled in the pool. To determine the general mobility of the mice in the pool, the swimming behavior of each animal was monitored and the total path length and swim velocity were calculated. […]

ADNP+/− mice [3] = assay: Elevated plus-maze in ADNP-deficient mice; assay type: in vivo, mouse; details: intranasal treatment, ADNP+/− male mice, 5 min
Text: as §1
as §2, with “Nasal SKIP (SEQ ID NO:6) application was performed daily, twice a day, for 1 month (5 days a week). After 1 month, SKIP (SEQ ID NO:6) was applied 2 h before the behavioral tests (described below).” left out
The maze consisted of two open arms (50 cm×10 cm) and two closed arms 50 cm×10 cm×40 cm), with arms of each type opposite to each other. […] The data were analyzed using the following formula: D2=(b−a)/(b+a), when ‘a’ designated the time spent in the open arm and ‘b’ designated the time spent in the closed arm.

With “SKIP (not fully specified (N-terminus, C-terminus)) [SKIP (SEQ ID NO:6), 4-amino acid peptide Ser-Lys-Ile-Pro]” the “protection against Zn intoxication (MTS viability vs Zn alone)” value (PC12 cells; peptide 10^−9M) was “showed protection”, the “protection against Zn intoxication (MTS viability vs Zn alone)” value (PC12 cells; peptide 10^−15M) was “showed protection” and the “object recognition, Phase 2 short retention (discrimination index D1)” value (ADNP+/− mice [1]) was “improved short and long term memory”. For the same substance, the “object recognition, Phase 3 long retention, 24 hours (discrimination index D1)” value (ADNP+/− mice [1]) was “improvement in long term memory for the ADNP-deficient mice, bringing them to the control levels; also recorded: improved short and long term memory”, the “water maze first daily test (reference memory), latency to hidden platform” value (ADNP+/− mice [2]) was “improved learning on the 2nd day; also recorded: improved the memory” and the “water maze second daily test, 5th day, latency to hidden platform” value (ADNP+/− mice [2]) was “improvement in the behavior of the ADNP-deficient mice, bringing them to the control levels”. The “risky behavior, time spent in open vs closed arms” value (ADNP+/− mice [3]) was “reduction in the risky behavior; also recorded: improvement in the risky behavior”.
